Experimental data reported in patent publication US6410545B1, “Lipid lowering quinazoline dietary supplement composition” (Parker Hughes Institute, priority 1998, dated 2002).
Where “and” joins values, the source holds several entries; their conditions need not be identical. Equal values may be shown once.

What was measured:
apo e−/− mice [1] = assay: In vivo hepatic VLDL-TG production using Triton WR1339 in apo e−/− mice
Description: C57B⅙ and apoE-deficient mice were treated with intraperitoneal injections of 50 μl vehicle or 40 mg/kg WHI-P164 in 50 μl vehicle for 7 consecutive days, followed by a 36 hour fast to shut down intestinal chylomicron synthesis. […] Blood samples were taken at 0 and 4 hours after Triton WR1339 injection and plasma TG levels were measured enzymatically using a commercially available enzymatic kit (Sigma Chemical Co.). Alternatively, food was returned to the mice after a 36 hour fast and blood samples were collected at 0, 1, 3, 6, and 9 hours after returning the food. Accumulation of chylomicron-TG was determined as accumulation of plasma TG.
To determine if WHI-P164 prevent hepatic TG accumulation by relieving 9 block in VLDL-TG secretion or by inhibiting upstream TG synthesis, in vivo hepatic VLDL-TG synthesis was analyzed. Synthesis was determined by following the accumulation of VLDL-TG after shutting down VLDL catabolism with Triton WR1339 injection and intestinal chylomicron synthesis with a 36 hours fast.
C57B⅙ and apoE-deficient mice were treated with intra peritoneal injections of vehicle or 40 mg/kg WHI-P164 (in 50 μl vehicle) for 7 consecutive days, followed by a 36 hour fast to shut down intestinal chylomicron synthesis. […] Blood samples (50 μl) were taken at 0 and 4 hours after Triton WR1339 injection and plasma TG was measured enzymatically using a commercially available enzymatic kit (Sigma Chemical Co.), as previously reported (Kuipers, supra).

apo e−/− mice [2] = assay: Hepatic and plasma lipids (Oil Red O staining, tissue lipid extraction) in apo e−/− mice on Western diet; assay type: in vivo; details: 40 mg/kg/day for 1 week
Description: (§1) Serum total cholesterol was measured enzymatically using the cholesterol kit from Sigma Chemical Co. (St. Louis, Mo., USA). For liver tissue lipid measurements, lipids were extracted from homogenized hepatic tissues using the method of Bligh and Dyer (Bligh, et al., Can. J. Biochem. Phys. 1959, 37:911-917). One gram of liver tissue was homogenized in 1 ml of distilled water and extracted with 4 ml of chloroform/methanol (1:1, v/v). The chloroform phase containing the lipids was evaporated under a stream of nitrogen, the lipids dissolved in 100 μL of isopropanol, and subjected to cholesterol determination as described above. Triglyceride (TG) contents were determined using the TG kit from Sigma Chemical Co.
At the end of the experiment, the animals were sacrificed and the harvested tissues were fixed in 10% phosphate buffered formalin overnight, embedded, sectioned, and stained by hematoxylin and eosin (H&E). The stained sections were examined for pathological changes. For Oil Red O staining, the liver was excised and snap frozen in liquid nitrogen. Five micrometer thick sections were obtained using the LeicaCM1800 cryostat (Heerbrugg, Switzerland), stained in 0.5% Oil Red O in propylene glycol for 1 hour, destained in 85% propylene glycol for 1 minute, rinsed twice in distilled water, counterstained in Mayer's hematoxylin for a few seconds, rinsed twice in distilled water, and mounted in Crystalmount (Biomedia Corp., Foster City, Calif.). The Oil Red O stainable material at 400 X magnification was quantitated using the ImagePro plus program (Media Cybernetics, Silver Spring, Md., USA) in conjunction with a 3CCD camera (DAGE-MTI Inc., Michigan City, USA).
apo e^−/− mice accumulate large amounts of TG-rich lipid droplets in their livers, due a blocked VLDL-TG secretion (Kuipers et al., 1997, J. Clin. Invest. 100:2915-2922). […] When tissue lipids were measured, there was a 22% reduction in hepatic cholesterol 39% reduction in hepatic triglycerides.

[3] = test system: hypercholesterolemic C57B⅙ mice; assay: Serum total cholesterol in hypercholesterolemic C57B⅙ mice on Paigen's cocoa butter diet; assay type: in vivo; details: 1.6 mg/kg/day
Description: Three- to four-week old C57B⅙ male mice (Taconic, Germantown, N.Y., USA) were kept in micro-isolator cages on a 12-hour day/night cycle and fed the Paigen's cocoa butter diet (15.8% fat, 1.25% cholesterol, and 0.5% sodium cholate) (Harlan Teklad, Madison, Wis., USA) for two weeks prior to initiation of lipid lowering therapy. Paigen's diet is described in Nishina et.al., 1993, J. Lipid Res. 34: 1413-1422.
Animals were treated with test compounds by intraperitoneal injection daily for 7 days. A range of doses was administered. Control animals received vehicle alone. The effect of quinazoline derivatives on total cholesterol, LDL, HDL, liver enzymes, and glucose was analyzed. The mice tissues were also examined histologically.
as §1
A high cholesterol and high fat diet was used to induce hypercholesterolemia in C57B⅙mice, using the methods described by Paigen, et al. (Nishina, et al., 1993, J. Lipid Res. 34:1413-1422) and as described for Example 1.

apo e−/− mice [4] = assay: Regression of pre-existing atherosclerotic lesions (Sudan IV stained aortas) in apo e−/− mice; assay type: in vivo; details: apo e−/− mice 7 months on Western diet, 40mg/kg/day for one month
Description: Aortas from untreated (FIG. 6A), vehicle treated (FIG. 6B), and WHI-P164 treated (FIG. 6C) animals were stained with Sudan IV to show the fatty streaks. Aortas of untreated control mice were obtained at 7 months to reflect the pretreatment condition of the test groups. Aortas of vehichle treated or WHI-P164 treated test mice were obtained at 8 months following a one month treatment program. Statistical comparisons indicate **p=0.002 for untreated controls versus WHI-P164 treated test mice and p=0.007 for vehicle controls versus WHI-P164 treated mice.
The effectiveness of WHI-P164 against pre-existing atherosclerotic lesions in apo e^−/− mice kept 7 months on high fat Western diet was examined. apo e^−/− mice were treated with either vehicle control or WHI-P164 at 40mg/kg/day for one month. […] Treatment with WHI-P164 caused a marked regression of the atherosclerotic lesions with fatty streaks covering only 23±2% (n=7) of the aortic surface (FIG. 6B), as compared to 40±5% in untreated mice (n=3) (FIG. 6A) (p=0.002) and 40±5% in the vehicle-treated mice (n=8) (FIG. 6C) (p=0.007).

COc1cc2ncnc(C(=O)c3cccc(Br)c3)c2cc1OC [WHI-P164, 4-(3′-bromobenzoyl)-6,7-dimethoxyquinazoline]
Triglyceride, Pre-Triton WR 1339 (apo e−/− mice [1]; apo e−/− (C57B1/6), 40 mg/kg i.p. 7 days, 36 hour fast): 155 ± 14 (n = 10) mg/dL
Triglyceride, Post-Triton WR 1339 (apo e−/− mice [1]; apo e−/− (C57B1/6), 40 mg/kg i.p. 7 days, 36 hour fast, 4 hours after Triton WR1339): 465 ± 46 (n = 8) mg/dL
Accumulation of VLDL-TG after Triton WR1339 treatment (apo e−/− mice [1]; apo e−/− mice, 40 mg/kg, versus vehicle): significantly less accumulation of VLDL-TG than vehicle-treated control mice
Oil Red O stainable lipid material in liver (apo e−/− mice [2]): 658±256 red pixels/field
hepatic cholesterol (apo e−/− mice [2]): 51.4 ± 4.4 mg/g wet wt
hepatic triglycerides (apo e−/− mice [2]): 211.6 ± 27 mg/g wet wt
plasma FFA (apo e−/− mice [2]): 3.6 ± 0.3 mM
plasma TG (apo e−/− mice [2]): 165 ± 19 mg/dL
Reduction in hepatic cholesterol (apo e−/− mice [2]; versus vehicle): 22%
Reduction in hepatic triglycerides (apo e−/− mice [2]; versus vehicle): 39%
Reduction of liver lipid material (image analysis) (apo e−/− mice [2]; versus vehicle): 75%
Serum total cholesterol ([3]; apo e+/+ C57B1/6 mice, cocoa butter diet two weeks, then drug 1 week at 1.6 mg/kg/day i.p.): 348.6 ± 27.6 mg/dL and 349 ± 28 mg/dL
Reduction in mean serum total cholesterol ([3]; hypercholesterolemic C57B⅙ mice, one week, versus untreated): 23%
Aortic surface covered by fatty streaks stainable by Sudan IV (apo e−/− mice [4]): 23±2%
